Results: patent US20240043528A1, “NANOBODY-OGA FUSIONS AND USES THEREOF” (President and Fellows of Harvard College, priority 2020, published 2024)
Entries after “also recorded” stand apart in the source; their conditions may differ.

B1: fl-OGA: Full length OGA with a myc tag (SEQ ID NO: 1) (protein)
chain: MASMQKLISEEDLLMAMEARIRSTVQKESQATLEERESELSSNPAASAGASLEPPAAPAPGEDNPAGAGGAAVAGAAGGARRFLCGVVEGFYGRPWVMEQRKELFRRLQKWELNTYLYAPKDDYKHRMFWREMYSVEEAEQLMTLISAAREYEIEFIYAISPGLDITFSNPKEVSTLKRKLDQVSQFGCRSFALLFDDIDHNMCAADKEVFSSFAHAQVSITNEIYQYLGEPETFLFCPTEYCGTFCYPNVSQSPYLRTVGEKLLPGIEVLWTGPKVVSKEIPVESIEEVSKIIKRAPVIWDNIHANDYDQKRLFLGPYKGRSTELIPRLKGVLTNPNCEFEANYVAIHTLATWYKSNMNGVRKDVVMTDSEDSTVSIQIKLENEGSDEDIETDVLYSPQMALKLALTEWLQEFGVPHQYSSRQVAHSGAKASVVDGTPLVAAPSLNATTVVTTVYQEPIMSQGAALSGEPTTLTKEEEKKQPDEEPMDMVVEKQEETDHKNDNQILSEIVEAKMAEELKPMDTDKESIAESKSPEMSMQEDCISDIAPMQTDEQTNKEQFVPGPNEKPLYTAEPVTLEDLQLLADLFYLPYEHGPKGAQMLREFQWLRANSSVVSVNCKGKDSEKIEEWRSRAAKFEEMCGLVMGMFTRLSNCANRTILYDMYSYVWDIKSIMSMVKSFVQWLGCRSHSSAQFLIGDQEPWAFRGGLAGEFQRLLPIDGANDLFFQPPPLTPTSKVYTIRPYFPKDEASVYKICREMYDDGVGLPFQSQPDLIGDKLVGGLLSLSLDYCFVLEDEDGICGYALGTVDVTPFIKKCKISWIPFMQEKYTKPNGDKELSEAEKIMLSFHEEQEVLPETFLANFPSLIKMDIHKKVTDPSVAKSMMACLLSSLKANGSRGAFCEVRPDDKRILEFYSKLGCFEIAKMEGFPKDVVILGRSL
modifications: myc tag

Tests used:
Format in all cases: cell-based, human
[1] = system: c-Fos-Ubc-Flag-EPEA; assay: Deglycosylation of c-Fos-Ubc-Flag-EPEA (anti-EPEA enrichment, anti-O-GlcNAc immunoblot); details: HEK 293T cells
Method: For immunoprecipitation of proteins with the C-terminal EPEA tag, cell lysates with equal amounts of protein were diluted with PBS and incubated with C-tag affinity matrix (Thermo Scientific) for 1 h at room temperature, with end-to-end rotation, following the manufacturer's instructions. After washing three times with PBS buffer, the enriched proteins were eluted with SDS sample buffer and subjected to SDS-PAGE.
For immunoblotting analysis, proteins were transferred to a nitrocellulose membrane using iBlot (Thermo Scientific). […] All IR fluorescence western blot images are converted into grayscale images by Fiji ImageJ. The unsaturated exposure of immunoblot images was used for quantification with the appropriate loading controls as standards. […]
The ability of nUbc-split OGA to selectively remove an O-GlcNAc modification from Ubc-tagged c-Fos was examined. c-Fos is a core component of the AP-1 transcription factor complex, which will dimerize with c-Jun and drive downstream transcription (Hess, J., Angel, P. & Schorpp-Kistner, M. AP-1 subunits: quarrel and harmony among siblings. J. Cell Sci. 2004, 117, 5965-73). […] The O-GlcNAc modification level was evaluated by immunoblotting with an anti-O-GlcNAc antibody (FIG. 4C). Ratios were quantified from the protein level and O-GlcNAc level.

[2] = system: endogenous c-Jun; assay: O-GlcNAcylation status of endogenous c-Jun (chemoenzymatic labeling, Biotin-IP); details: HEK 293T cells expressing c-Fos-Ubc
Method: (§1) Purification of GalT1 (Y289L) enzyme and labeling of O-GlcNAcylated proteins with GalNAz were performed according to the procedure of Hsieh-Wilson and co-workers (Thompson, J. W., Griffin, M. E. & Hsieh-Wilson, L. C. Methods for the Detection, Study, and Dynamic Profiling of O-GlcNAc Glycosylation. Methods Enzymol. 2018, 598, 101-135). Briefly, cell samples in 6-well plates or 15-cm dishes were harvested and washed by PBS once. The lysis buffer (PBS with 2% SDS) was added into cell pellets and heated for 5 min at 95° C., followed by the sonication to sheer DNA. Protein concentrations were determined by BCA assay. Cell lysates were reduced and alkylated with 25 mM DTT at 95° C. for 5 min and 50 mM iodoacetamide at room temperature for 1 h respectively. Proteins were precipitated by the methanol/chloroform solution (aqueous phase:CH3OH:CHCl3=4:4:1) and resuspended in 1% SDS, 20 mM HEPES (pH 7.9) buffer with a concentration of 3.75 mg/mL. For 150 μg proteins, H2O (49 μL), 2.5×GalT labeling buffer (80 μL, final concentrations: 50 mM NaCl, 20 mM HEPES, 2% NP-40, pH 7.9), 100 mM MnCl2 (11 μL), 500 μM UDP-GalNAz (10 μL), 2 mg/mL GalT1 (Y289L) (10 μL) were added into cell lysates orderly. The reaction was gently rotated at 4° C. for at least 20 h and the proteins were precipitated as described above. The proteins were resuspended with 1% SDS, PBS for the further click chemistry. […]

[3] = system: AP-1 transcriptional activity; assay: AP-1 responsive luciferase reporter assay in c-Fos-Ubc co-transfected HEK 293T cells; details: c-Fos-Ubc-Flag-EPEA co-transfected HEK 293T cells, 48 h; OSMI-4b 25 μM
Method: For luciferase assay in the OGT inhibition experiment, HEK 293T cells co-transfected with c-Fos-Ubc-Flag-EPEA plasmid and AP-1 responsive luciferase reporter were treated with either DMSO or 25 μM OSMI-4b for 48 h before luciferase activity detection. […] Luciferase reporter assays were performed using Luciferase Assay System (Promega, E1500) according to manufacturer's protocols. At least three independent biological replicates were run using this assay.

[4] = system: global O-GlcNAcylation; assay: Global O-GlcNAcylation level in whole cell lysate, anti-O-GlcNAc (RL2) immunoblot; details: HEK 293T whole cell lysate, OSMI-4b 25 μM for 30 h
Method: After 36-48 h of transfection, cells were harvested and washed with PBS once. Cells were lysed with M-PER lysis buffer containing 1× protease inhibitor cocktail and 10 μM Thiamet-G unless otherwise noted. Protein concentrations were determined by the BCA assay kit (G-Biosciences, 786) on a multi-mode microplate reader FilterMax F3 (Molecular Devices LLC, Sunnyvale, CA).
(§2) For immunoblotting analysis, proteins were transferred to a nitrocellulose membrane using iBlot (Thermo Scientific). Membranes were blocked with Tris buffered saline containing 0.1% Tween-20 and 5% BSA and incubated with the primary antibodies (1:1000 dilution) and the secondary antibodies (1:10,000 dilution) sequentially. Immunoblot images were captured by Azure Imager C600. Analysis of immunoblots was conducted with Fiji ImageJ. All IR fluorescence western blot images are converted into grayscale images by Fiji ImageJ. The unsaturated exposure of immunoblot images was used for quantification with the appropriate loading controls as standards. Statistical analysis of the data was performed with Prism 8, using data from at least three independent experiments.

[5] = system: GFP-c-Jun; assay: Cycloheximide (CHX) chase of GFP-c-Jun stability; details: 50 μM CHX for up to 12 h, HEK 293T cells
Method: HEK 293T cells were transiently transfected with indicated plasmids and treated with DMSO, or Ac45SGlcNAc, or Thiamet-G at the same time if needed. 36-48 h after the transfection, cells were incubated with 50 μM CHX for up to 12 h. At the indicated time points, cells were harvested and lysed with M-PER lysis buffer. Protein expression and global O-GlcNAc level were determined by immunoblot assays. GAPDH protein level was used as the internal loading control.

[6] = system: endogenous CREB; assay: Mass shift assay of O-GlcNAcylation on endogenous CREB (off-target marker); details: untargeted off-target marker, HEK 293T cells
Method: as §2
Purification of GalT1 (Y289L) enzyme and labeling of O-GlcNAcylated proteins with GalNAz were performed according to the procedure of Hsieh-Wilson and co-workers (Thompson, J. W., Griffin, M. E. & Hsieh-Wilson, L. C. Methods for the Detection, Study, and Dynamic Profiling of O-GlcNAc Glycosylation. Methods Enzymol. 2018, 598, 101-135). Briefly, cell samples in 6-well plates or 15-cm dishes were harvested and washed by PBS once. The lysis buffer (PBS with 2% SDS) was added into cell pellets and heated for 5 min at 95° C., followed by the sonication to sheer DNA. Protein concentrations were determined by BCA assay. […]

[7] = system: O-GlcNAcylated proteome; assay: Quantitative TMT mass spectrometry of enriched O-GlcNAcylated proteome; details: co-expression of GFP-Nup62, versus inactive nGFP-splitOGA(D174N), n=2
Method: as §1, with “orderly.” for “orderly. The reaction was gently rotated at 4° C. for at least 20 h and the proteins were precipitated as described above. The proteins were resuspended with 1% SDS, PBS for the further click chemistry.”
For quantitative proteomics, after reaction with Biotin-Alkyne probe, proteins were precipitated and resuspended in 400 μL PBS containing 2% SDS. […]

Molecule	O-GlcNAc modification level on c-Fos-Ubc [1]	O-GlcNAc modification on endogenous c-Jun [2]	AP-1 transcriptional activity (luciferase) [3]	global O-GlcNAcylation level [4]	global O-GlcNAcylation level ([4]; listed as OSMI-4b9)	stability / degradation of GFP-c-Jun [5]	O-GlcNAcylation level on endogenous CREB [6]	change of enriched O-GlcNAcylated protein abundance (global proteome) [7]
OSMI-4b	deglycosylated	reduced O-GlcNAc modification	significantly upregulated	dramatic reduction of global O-GlcNAcylation level	dramatic reduction			
CCN=C1N[C@@H]2[C@@H](O)[C@H](O)[C@@H](CO)O[C@@H]2S1 [Thiamet-G]						attenuated; also recorded: enhanced		
B1				global reduction of O-GlcNAc; also recorded: reduced O-GlcNAc on CREB and the whole proteome			reduced O-GlcNAc on CREB and the whole proteome	globally decreased O-GlcNAcylated proteins
